Experimental data reported in patent publication US20060120980A1, “Novel dermatological composition using bio-activating organocatalysts” (priority 2004, published 2006).
Blank lines part the entries; values can stand above or below the compound they belong to.

Experiments:
[1] = tested on: papilla-corium layer of skin; assay: bioreactive skin test (pin-head like projections, activation of the papilla-corium layer); type: in vivo; design: key: * = slight bioreactivity; *** = gross bioreactivity
Excerpt: In this assay, compounds are applied to the dermis of an animal and potentially bio-reactive compounds (i.e., those which might function as bio-activating organocatalysts) produce a multiplicity of very small, pin-head like projections on the epidermis produced by activation of the papilla-corium layer. […] The bioreactivity of the formula can be judged by the intensity and time of the reaction.
The formula according to the present invention which are bioreactive in a skin test show a multiplicity of very small, pin-head like projections on the epidermis produced by activation of the papilla-corium layer. […] The activation ensues for about 2-4 hours and is from slight to gross depending on the formulation and returns to the normal skin landscape. The bioreactivity of the formula can be judged by the intensity and time of the reaction.
Essentially, the skin cream formulations containing organocatalyst are tested on skin. Those compositions which are bioreactive in the skin test show a multiplicity of very small, pin-head like projections on the epidermis produced by activation of the papilla-corium layer. The activation continues for about 2-4 hours and is from slight to gross depending on the formulation and returns to the normal skin landscape. The bioreactivity of the formula can be judged by the intensity and time of the reaction.

[2] = appearance of the final solution (Cosmetics, formulary consideration); type: physicochemical; settings: appearance of final solution after reaction with Cu
Excerpt: In certain aspects of the present invention, the catalyst system using transition metals (Cu or Fe) as trace catalytic metals, may require the presence of an optional redox agent (antioxidant) so as to produce H2O2. In order to form hydrogen peroxide, for example, it is necessary for the redox agent to reduce Cu^++ to Cu^+. […] In expanding the number of antioxidants, the following table was assembled after experimentation, based upon reactivity with Cu, the ability to reduce CoQ10 to H2CoQ10 and the appearance of the final solution (formulary consideration).

[3] = metal chelate; cited from earlier work
[4] = solubility of organocatalyst in Eucerin skin cream (table comment); type: physicochemical; settings: 20 % by weight in Eucerin skin cream
Protocol: In order to test the relative bioreactivity of organocatalysts according to the present invention, a number of potential organocatalysts were formulated into a skin cream using Eucerin™ at concentrations ranging from 2% to 25% by weight of the final skin cream formulation. These skin creams were formulated by dissolving the organocatalyst at a desired amount into the Eucerin. The formulated compositions were then tested for skin bioreactivity according to the method previously described hereinabove.

[5] = Table 1A, 2 % by weight in Eucerin skin cream
[6] = Table 1A, 20 % by weight in Eucerin skin cream
[7] = Table 1A, 25 % by weight in Eucerin skin cream

Compound: O=C1NCC(C(=O)O)N1 (stereo not shown) [2-imidazolidone-4-carboxylic acid]
Bioreactivity ([1]; Table 1, 2 % by weight): *
Bioreactivity ([1]; Table 1, 20 % by weight): ***
Bioreactivity [1, 5]: *
Bioreactivity [1, 6]: ***

Cosmetics [2]: clear solution
Compound: N[C@@H](CS)C(=O)O [Cysteine]

Cosmetics [2]: ugly brown ppt.
Compound: O=C(O)c1cc(O)c(O)c(O)c1 [Gallic acid]

Compound: N[C@@H](Cc1c[nH]cn1)C(=O)O.[Cu] [Copper histidine]
Affinity Constant [3]: 10^16

Compound: Copper gluconate
Affinity Constant [3]: 10^6

Compound: O=C(O)CO [Glycolic acid]
Affinity Constant [3]: 10^5

Cosmetics [2]: slightly colored ppt
Compound: O=c1[nH]c(=O)c2[nH]c(=O)[nH]c2[nH]1 [Uric acid]

Cosmetics [2]: clear solution
Compound: O=C(O)CCCC[C@@H]1CCSS1 (racemic) [Lipoic Acid]

Compound: O=C([O-])CN(CCN(CC(=O)[O-])CC(=O)O)CC(=O)O.[Cu+2] [Copper EDTA]
Affinity Constant [3]: 10^23

Compound: CC(=O)N(O)CCCCCNC(=O)CCC(=O)N(O)CCCCCNC(=O)CCC(=O)N(O)CCCCCN [Desferrioxamine]
Affinity Constant [3]: 10^30

Compound: N[C@@H](Cc1c[nH]cn1)C(=O)O.[Fe+2] [Ferrous histidine]
Affinity Constant [3]: 10^16

Compound: Copper tripeptide (GHG)
Affinity Constant [3]: 10^16

Compound: C=C[C@H]1CN2CC[C@H]1C[C@H]2[C@H](O)c1ccnc2ccc(OC)cc12.O=S(=O)(O)O [quinine hydrosulfate, reference compound]
Bioreactivity ([1]; Table 1, 2 % by weight): *
Bioreactivity [1, 5]: *

Compound: O=C(O)[C@@H]1CC(O)CN1 (stereo partly shown) [1-4-hydroxyproline]
Bioreactivity ([1]; Table 1, 2 % by weight): *
Bioreactivity ([1]; Table 1, 25 % by weight): ***
Bioreactivity [1, 5]: *
Bioreactivity [1, 7]: ***

Comment (solubility) [4]: low solubility
Compound: CC(=O)N1CCC[C@H]1C(=O)O [N-acetyl-1-proline]
Bioreactivity ([1]; Table 1, 20 % by weight): *
Bioreactivity [1, 6]: *

Comment (solubility) [4]: low solubility
Compound: N[C@@H](Cc1ccccc1)C(=O)O [1-phenylalanine]
Bioreactivity ([1]; Table 1, 20 % by weight): *
Bioreactivity [1, 6]: *

Cosmetics [2]: clear solution
Compound: CC(=O)N[C@@H](CS)C(=O)O [N-acetyl cysteine]

Compound: CC(O)C(=O)[O-].CC(O)C(=O)[O-].[Fe+2] (stereo not shown) [Ferrous lactate]
Affinity Constant [3]: 10^12

Compound: O=C([O-])CN(CCN(CC(=O)[O-])CC(=O)O)CC(=O)[O-].[Fe+3] [Ferric EDTA]
Affinity Constant [3]: 10^25

Compound: Copper lacate
Affinity Constant [3]: 10^10-10^12

Compound: O=C(O)c1ccccc1O.[Fe+3] [Ferric salicylic acid]
Affinity Constant [3]: 10^16

Cosmetics [2]: clear solution
Compound: N[C@@H](CCC(=O)N[C@@H](CS)C(=O)NCC(=O)O)C(=O)O [Glutathione]

Compound: O=C([O-])C(O)C(O)C(=O)[O-].[Na+].[Na+] (stereo not shown) [disodium tartrate, reference compound]
Bioreactivity [1, 6]: no reactivity

Compound: O=C([O-])CN(CCN(CC(=O)[O-])CC(=O)[O-])CC(=O)[O-].[Fe+2].[H+].[H+] [Ferrous EDTA]
Affinity Constant [3]: 10^25

Compound: O=C(O)[C@@H]1CCCN1 [1-proline]
Bioreactivity ([1]; in vivo): *** and *

Compound: O=C(O)C1CCCN1 (stereo not shown) [d,1-proline]
Bioreactivity ([1]; in vivo): ***

Compound: C=C[C@H]1C[N@@]2CC[C@H]1C[C@@H]2[C@@H](O)c1ccnc2ccc(OC)cc12 [quinidine, reference compound]
Bioreactivity ([1]; Table 1, 2 % by weight): *
Bioreactivity [1, 5]: *

Compound: Oc1ccccc1O.[Fe+3] [Ferric catechol]
Affinity Constant [3]: 10^20

Compound: CC(C)(C)OC(=O)[C@@H]1CCCN1 [1-proline-t-butyl ester]
Bioreactivity ([1]; Table 1, 20 % by weight): ***
Bioreactivity [1, 6]: ***

Cosmetics [2]: ugly brown ppt.
Compound: Vitamin E

Cosmetics [2]: ugly brown ppt.
Compound: CCCOC(=O)c1cc(O)c(O)c(O)c1 [Propyl gallate]

Compound: CC(O)CO (stereo not shown) [propylene glycol, reference compound]
Bioreactivity [1, 7]: no reactivity

Cosmetics [2]: dark brown ppt.
Compound: O=C(O)/C=C/c1ccc(O)c(O)c1 [Caffeic acid]
